Source: PMC11641208, “Advanced PROTAC and Quantitative Proteomics Strategy Reveals Bax Inhibitor-1 as a Critical Target of Icaritin in Burkitt Lymphoma” (International Journal of Molecular Sciences, 2024)

Biological target: T1, Bax inhibitor-1 (BI-1) (Homo sapiens, UniProt P55061)
T1 construct: gene TMBIM6
Assay: SPR (Biacore T200, BI-1 immobilised on CM5 chip, kinetic […] fit)
Assay type: binding

T1 sequence (P55061 whole entry): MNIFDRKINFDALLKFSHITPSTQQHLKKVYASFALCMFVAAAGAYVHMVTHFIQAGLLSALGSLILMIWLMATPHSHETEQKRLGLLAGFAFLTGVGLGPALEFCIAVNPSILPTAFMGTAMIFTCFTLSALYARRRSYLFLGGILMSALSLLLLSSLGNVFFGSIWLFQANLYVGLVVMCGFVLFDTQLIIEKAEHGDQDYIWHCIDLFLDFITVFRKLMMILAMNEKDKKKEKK

Kd: 79.7 µM
SMILES: C#CCOc1cc(O)c2c(=O)c(OCCOCCOCCOCC(=O)NCCCCCC(=O)Nc3cccc4c3CN(C3CCC(=O)NC3=O)C4=O)c(-c3ccc(OC)cc3)oc2c1CC=C(C)C (stereo not shown) [compound 10, LJ-41]
